The values below come from ChEMBL document CHEMBL3886683, “Apoptosis signal-regulating kinase inhibitor” (2016).

Molecules are shown by their SMILES.

The target in one experiment is T1, Cytochrome P450 1A1 (Homo sapiens, UniProt P04798).
T1 sequence (P04798 whole entry): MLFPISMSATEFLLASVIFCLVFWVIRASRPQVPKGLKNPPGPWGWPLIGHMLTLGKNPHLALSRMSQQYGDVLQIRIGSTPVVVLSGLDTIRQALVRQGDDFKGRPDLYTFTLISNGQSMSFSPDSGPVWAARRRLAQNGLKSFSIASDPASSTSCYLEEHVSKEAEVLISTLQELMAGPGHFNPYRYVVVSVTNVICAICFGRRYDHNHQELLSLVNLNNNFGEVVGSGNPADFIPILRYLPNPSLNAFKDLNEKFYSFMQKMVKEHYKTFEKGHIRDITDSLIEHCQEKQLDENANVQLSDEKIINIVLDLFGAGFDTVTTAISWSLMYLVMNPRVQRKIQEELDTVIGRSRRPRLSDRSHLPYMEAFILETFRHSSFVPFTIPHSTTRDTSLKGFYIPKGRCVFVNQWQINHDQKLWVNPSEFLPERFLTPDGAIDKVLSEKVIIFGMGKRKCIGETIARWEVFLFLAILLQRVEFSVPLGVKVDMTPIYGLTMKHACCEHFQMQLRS
Kind of experiment: Inhibition Assay: Six test compound concentrations (0.1, 0.25, 1, 2.5, 10, 25 μM in DMSO; final DMSO concentration=0.3%) are incubated with human liver microsomes ([…]) and NADPH (1 mM) in the presence of the probe substrate ethoxyresorufin (0.5 μM) for 5 min at 37° C. The selective CYP1A inhibitor, alpha-naphthoflavone, is screened alongside the test compounds as a positive control.

The next experiment concerns the target Cytochrome P450 2C19 (Homo sapiens, UniProt P33261). Nature of the experiment: Inhibition Assay: Six test compound concentrations (0.1, 0.25, 1, 2.5, 10, 25 μM in DMSO; final DMSO concentration=[…]) are incubated with human liver microsomes (0.5 mg/mL) and NADPH (1 mM) in the presence of the probe substrate mephenytoin (25 μM) for 60 min at 37° C. The selective CYP2C19 inhibitor, tranylcypromine, is screened alongside the test compounds as a positive control.

A further experiment concerns the target T2, Cytochrome P450 2B6 (Homo sapiens, UniProt P20813).
T2 sequence (P20813 whole entry): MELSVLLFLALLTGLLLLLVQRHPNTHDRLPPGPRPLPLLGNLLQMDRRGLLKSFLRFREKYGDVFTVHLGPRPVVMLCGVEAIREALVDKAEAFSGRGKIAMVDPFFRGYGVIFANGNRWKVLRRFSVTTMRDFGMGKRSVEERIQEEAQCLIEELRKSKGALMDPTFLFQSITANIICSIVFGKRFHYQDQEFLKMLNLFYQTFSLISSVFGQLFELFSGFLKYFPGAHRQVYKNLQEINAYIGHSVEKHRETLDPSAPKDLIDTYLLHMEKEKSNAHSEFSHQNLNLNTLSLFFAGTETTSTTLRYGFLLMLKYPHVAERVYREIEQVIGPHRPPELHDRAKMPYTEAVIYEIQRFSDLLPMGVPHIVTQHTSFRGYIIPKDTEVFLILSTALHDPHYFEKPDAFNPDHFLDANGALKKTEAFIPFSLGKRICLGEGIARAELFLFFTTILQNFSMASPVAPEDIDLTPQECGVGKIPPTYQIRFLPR
Nature of the experiment: Inhibition Assay: Six test compound concentrations (0.1, 0.25, 1, 2.5, 10, 25 μM in DMSO; final DMSO concentration=0.3%) are incubated with human liver microsomes (0.1 mg/mL) and NADPH (1 mM) in the presence of the probe substrate bupropion (110 μM) for 5 min at 37° C. The selective CYP2B6 inhibitor, ticlopidine, is screened alongside the test compounds as a positive control.

The target of another experiment is T3, Cytochrome P450 2C8 (Homo sapiens, UniProt P10632).
T3 sequence (P10632 whole entry): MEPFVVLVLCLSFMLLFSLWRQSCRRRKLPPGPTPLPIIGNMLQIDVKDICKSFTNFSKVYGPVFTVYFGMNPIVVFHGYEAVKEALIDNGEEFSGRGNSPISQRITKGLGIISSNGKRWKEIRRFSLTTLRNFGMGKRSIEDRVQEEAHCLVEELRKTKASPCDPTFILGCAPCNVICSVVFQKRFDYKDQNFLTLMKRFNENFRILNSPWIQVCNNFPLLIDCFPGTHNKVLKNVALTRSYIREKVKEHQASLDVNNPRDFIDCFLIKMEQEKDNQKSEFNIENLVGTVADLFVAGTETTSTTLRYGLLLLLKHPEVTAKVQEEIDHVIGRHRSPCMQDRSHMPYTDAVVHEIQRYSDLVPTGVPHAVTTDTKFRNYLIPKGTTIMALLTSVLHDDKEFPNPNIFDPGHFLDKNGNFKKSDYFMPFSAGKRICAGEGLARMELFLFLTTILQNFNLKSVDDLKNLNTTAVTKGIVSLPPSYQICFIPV
Kind of experiment: Inhibition Assay: Six test compound concentrations (0.1, 0.25, 1, 2.5, 10, 25 μM in DMSO; final DMSO concentration=0.3%) are incubated with human liver microsomes ([…]) and NADPH (1 mM) in the presence of the probe substrate paclitaxel (7.5 μM) for 30 min at 37° C. The selective CYP2C8 inhibitor, montelukast, is screened alongside the test compounds as a positive control.

The target in another experiment is Cytochrome P450 2C9 (Homo sapiens, UniProt P11712). Nature of the experiment: Inhibition Assay: Six test compound concentrations (0.1, 0.25, 1, 2.5, 10, 25 μM in DMSO; final DMSO concentration=[…]) are incubated with human liver microsomes (1 mg/mL) and NADPH (1 mM) in the presence of the probe substrate tolbutamide (120 μM) for 60 min at 37° C. The selective CYP2C9 inhibitor, sulphaphenazole, is screened alongside the test compounds as a positive control.
Sequence of Cytochrome P450 2C9 (P11712 whole entry): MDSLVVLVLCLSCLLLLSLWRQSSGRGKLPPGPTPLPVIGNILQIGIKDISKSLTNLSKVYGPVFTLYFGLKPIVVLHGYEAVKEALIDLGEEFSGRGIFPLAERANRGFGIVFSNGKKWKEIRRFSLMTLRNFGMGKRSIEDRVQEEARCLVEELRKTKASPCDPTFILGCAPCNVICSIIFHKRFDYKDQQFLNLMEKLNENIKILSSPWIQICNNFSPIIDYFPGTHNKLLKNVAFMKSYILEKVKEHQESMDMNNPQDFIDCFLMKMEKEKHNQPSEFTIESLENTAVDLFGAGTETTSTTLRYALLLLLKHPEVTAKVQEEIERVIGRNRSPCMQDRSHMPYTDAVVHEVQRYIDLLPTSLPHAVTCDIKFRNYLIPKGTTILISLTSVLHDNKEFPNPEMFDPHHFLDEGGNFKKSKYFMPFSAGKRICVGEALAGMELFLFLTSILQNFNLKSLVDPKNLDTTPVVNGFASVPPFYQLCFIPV

Experiment [1] has as its target T4, Cytochrome P450 3A4 (Homo sapiens, UniProt P08684). Nature of the experiment: Inhibition Assay: Six test compound concentrations (0.1, 0.25, 1, 2.5, 10, 25 μM in DMSO; final DMSO concentration=0.275%) are incubated with human liver microsomes (0.5 mg/mL) and NADPH (1 mM) in the presence of the probe substrate testosterone (50 μM) for 5 min at 37° C. The selective CYP3A4 inhibitor, ketoconazole, is screened alongside the test compounds as a positive control.

The target in experiment [2] is T4, Cytochrome P450 3A4. Kind of experiment: Inhibition Assay: Six test compound concentrations (0.1, 0.25, 1, 2.5, 10, 25 μM in DMSO; final DMSO concentration=0.26%) are incubated with human liver microsomes (0.1 mg/mL) and NADPH (1 mM) in the presence of the probe substrate midazolam ([…]) for 5 min at 37° C. The selective CYP3A4 inhibitor, ketoconazole, is screened alongside the test compounds as a positive control.

T4 sequence (P08684 whole entry): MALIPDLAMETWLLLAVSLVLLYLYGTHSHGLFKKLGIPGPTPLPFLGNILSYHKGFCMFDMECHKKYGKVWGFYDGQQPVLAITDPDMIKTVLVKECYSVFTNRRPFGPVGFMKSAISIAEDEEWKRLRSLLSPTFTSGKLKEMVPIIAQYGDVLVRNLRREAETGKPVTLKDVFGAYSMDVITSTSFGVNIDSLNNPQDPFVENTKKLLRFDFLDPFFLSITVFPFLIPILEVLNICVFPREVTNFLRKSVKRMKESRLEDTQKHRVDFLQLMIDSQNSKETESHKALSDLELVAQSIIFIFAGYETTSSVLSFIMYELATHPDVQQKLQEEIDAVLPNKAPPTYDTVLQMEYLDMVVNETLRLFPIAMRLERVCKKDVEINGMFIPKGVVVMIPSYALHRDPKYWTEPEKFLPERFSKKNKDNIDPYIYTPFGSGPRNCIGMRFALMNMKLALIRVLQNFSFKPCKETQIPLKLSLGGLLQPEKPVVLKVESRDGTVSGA
Sequence of Cytochrome P450 2C19 (P33261 whole entry): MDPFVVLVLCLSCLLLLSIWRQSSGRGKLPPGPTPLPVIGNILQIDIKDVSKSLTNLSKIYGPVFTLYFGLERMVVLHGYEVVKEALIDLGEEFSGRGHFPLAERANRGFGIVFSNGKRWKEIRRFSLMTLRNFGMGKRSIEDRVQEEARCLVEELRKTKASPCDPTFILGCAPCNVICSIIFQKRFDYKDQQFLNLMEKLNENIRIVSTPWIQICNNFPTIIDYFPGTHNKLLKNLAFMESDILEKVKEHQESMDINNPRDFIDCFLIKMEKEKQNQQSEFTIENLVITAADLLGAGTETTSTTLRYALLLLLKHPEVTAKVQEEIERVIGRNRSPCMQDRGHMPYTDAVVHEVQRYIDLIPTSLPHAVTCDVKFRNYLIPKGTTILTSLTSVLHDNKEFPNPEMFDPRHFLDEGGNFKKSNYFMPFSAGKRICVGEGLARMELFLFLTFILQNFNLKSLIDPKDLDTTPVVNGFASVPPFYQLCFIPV

With `O=c1ccc2nc3ccc(O)cc3oc-2c1`, the IC50 at Cytochrome P450 1A1 is greater than 25 µM.
Consider `CCC1(c2ccc(O)cc2)NC(=O)N(C)C1=O` (configuration not stated), for which the IC50 on Cytochrome P450 2C19 is greater than 25 µM.
For `CC(NC(C)(C)CO)C(=O)c1cccc(Cl)c1` (configuration not stated), the IC50 at Cytochrome P450 2B6 came out at 19.2 µM.
`CC(=O)O[C@H]1C(=O)[C@@]2(C)[C@H]([C@H](OC(=O)c3ccccc3)[C@]3(O)C[C@H](OC(=O)[C@H](O)[C@@H](NC(=O)c4ccccc4)c4ccccc4)C(C)=C1C3(C)C)[C@]1(OC(C)=O)CO[C@@H]1[C@@H](O)[C@@H]2O`: the IC50 on Cytochrome P450 2C8 came to 21.6 µM.
Consider `CCCCNC(=O)NS(=O)(=O)c1ccc(CO)cc1`, for which the IC50 on Cytochrome P450 2C9 is greater than 25 µM.
Turning to `C[C@]12CC[C@H]3[C@@H](C[C@@H](O)C4=CC(=O)CC[C@@]43C)[C@@H]1CC[C@@H]2O` [6beta-hydroxytestosterone], the half-maximal inhibitory concentration (IC50) at Cytochrome P450 3A4 [1] stood at 10.5 µM.
As for `OCc1ncc2n1-c1ccc(Cl)cc1C(c1ccccc1F)=NC2` [ALPHA-HYDROXY-MIDAZOLAM], at Cytochrome P450 3A4 [2], the IC50 was found to be 2.7 µM.
